These are literature values, as cited in US5843942A, “Aromatic amino ethers as pain relieving agents” (Zeneca Limited, priority 1994, dated 1998).

Each structure is given as a SMILES string.

As for `CC(=O)NNC(=O)N1Cc2ccccc2Oc2ccc(Cl)cc21` [SC-19220], the “block of the effect of PGE2” value is “blocks the effect of PGE2” in the data set on dog fundus, “not on other tissues such as the cat trachea” with cat trachea and “blocks the effect of PGE2” in the data set with guinea pig ileum.
